Reference: paper PMC10534672, “A Nucleus-Targeting WT1 Antagonistic Peptide Encapsulated in Polymeric Nanomicelles Combats Refractory Chronic Myeloid Leukemia” (Pharmaceutics, 2023)
Ends that are not written are not given here.

Assays:
myeloid leukemia = conditions: cited from earlier work
From the text: In CML, the influence of WT1 stems from its robust transcriptional control of genes associated with cell growth, metabolism, differentiation, and apoptosis. Interventions targeting WT1 can induce cell cycle arrest and apoptosis. […] Similarly, WT1-specific RNA interference led to an increase in G0/G1-phase cells and a decrease in S-phase cells. In this study, the WIP2W peptide halted the cell cycle in ...

[1] = system: WT1+ BP-CML xenograft (K562) mice; assay: Splenic infiltration (Ki67 staining of spleen); format: in vivo, BALB/c nude mice; conditions: after 14 days daily treatment, n = 3
K562 cells [2] = assay: Cell cycle analysis (PI, flow cytometry); format: cell-based, human; conditions: K562, 10 μM, 24 h
Experimental: K562 cells were incubated in the absence and presence of WIP2W (10 μM) for 24 h. Subsequently, these cells were collected and fixed with 75% cold ethanol overnight, followed by treatment with propidium iodide (PI) and RNase A. Then, the cell fluorescence was examined using flow cytometry, and the cell cycle profiles were analyzed using FlowJo 10.

WT1 protein [3] = target: T1, WT1 protein (Homo sapiens, UniProt P19544); assay: Pull-down assay with biotin-WIP2W on streptavidin magnetic beads, anti-WT1 immunoblot; format: binding; design: incubated with protein lysates, including the nuclear and cytoplasmic proteins from K562 cells; endogenous in cells; host or cells: K562 cells; conditions: nuclear and cytoplasmic protein lysates of K562 cells, 2 h at 25 °C, anti-WT1 Western blot
T1 sequence (P19544 whole entry): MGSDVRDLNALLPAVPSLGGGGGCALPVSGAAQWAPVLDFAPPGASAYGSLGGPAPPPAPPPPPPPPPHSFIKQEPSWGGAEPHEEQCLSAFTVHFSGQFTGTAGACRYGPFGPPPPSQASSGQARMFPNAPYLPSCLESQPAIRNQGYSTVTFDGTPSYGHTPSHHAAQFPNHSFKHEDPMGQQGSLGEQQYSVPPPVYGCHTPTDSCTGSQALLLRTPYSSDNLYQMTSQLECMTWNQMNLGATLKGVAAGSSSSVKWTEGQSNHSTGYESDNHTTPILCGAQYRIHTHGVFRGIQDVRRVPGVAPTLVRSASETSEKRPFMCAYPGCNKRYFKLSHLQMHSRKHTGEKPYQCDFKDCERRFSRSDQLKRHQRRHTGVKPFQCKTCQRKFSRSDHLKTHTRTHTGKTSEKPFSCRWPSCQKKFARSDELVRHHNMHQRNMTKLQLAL
Experimental: Proteins from different localizations were harnessed for peptide–protein interaction studies. […] The bound WIP2W beads were magnetically separated, discarding the unattached WIP2W molecules in the leftover solution. The combined protein extracts from the whole cell, nucleus, and cytoplasm were then exposed to the WIP2W beads for another 2 h at 25 °C. Finally, the bead eluates were probed using an anti-WT1 antibody.

[4] = system: WT1+ BP-CML xenograft (K562) mice; assay: In vivo antitumor efficiency; design: species or system BALB/c nude mice; conditions: tumors excised after 14 days daily s.c. treatment, WIP2W 30 mg/kg
Experimental: These tumor-bearing mice were then randomly assigned to one of four groups (n = 5 per group). […] The subcutaneous tumor volume (mm^3) and body weight (g) were recorded three times per week, and the tumor volume can be computed according to the following equation:Tumor volume (mm^3) = L × W × W/2(2) where “L” and “W” denote the maximum and minimum dimensions, respectively. On day 19, the mice were slaughtered, and the retrieved major organs and tumors were stained with hematoxylin and eosin (H&E), WT1, and Ki67, respectively.

WT1 protein [5] = target: T1, WT1 protein; assay: WT1 immunohistochemistry of excised tumors; format: in vivo, BALB/c nude mice; design: The excised tumors underwent immunohistochemical analysis using an anti-WT1 antibody; from tissue; host or cells: excised K562 xenograft tumours from BALB/c nude mice; conditions: anti-WT1 IHC, after 14 days daily s.c. treatment, WIP2W 30 mg/kg
From the text: […]. […] […].

[6] = Biological safety in vivo (body weight, H&E of major organs)
L02 cells = assay: Cytotoxicity assay (CCK-8); conditions: L02, up to 40 μM, 24 h
Experimental: (§1) K562 (1.5 × 10^4/well) and L02 (8 × 10^3/well) cells were seeded in 96-well plates and incubated with gradient concentrations of peptides or micelles in complete mediums. After 24 or 48 h of incubation, each well was spiked with CCK-8 agent (10 μL) for another 2 h. Absorption was detected by a spectrophotometer at 450 nm (Molecular Devices, San Jose, CA, USA), and IC50 values were calculated by curve fitting.

K562 cells [7] = assay: Cellular uptake by flow cytometry; format: cell-based, human; conditions: FITC-WIP2W 0.05, 0.5 and 5 μM, K562, 37 °C, 2 h, n = 3
Experimental: The percentage of positive cells and their mean fluorescence intensity were then analyzed using a flow cytometer, with each condition tested in triplicate (n = 3).

[8] = Encapsulation efficiency of PEG-PE micelles by ultrafiltration; format: physicochemical; conditions: n = 3
Experimental: The ability of PEG-PE micelles to encapsulate WIP2W was assessed using an ultrafiltration method. Solutions of FITC-WIP2W-loaded micelles (with PEG-PE concentrations of 5, 10, 30, 50, 100, and 200 μM, and FITC-WIP2W at 10 μM) were placed into an ultra-centrifugal filter (MWCO 100,000, Millipore, Burlington, MA, USA). They were then centrifuged at 12,000× g for 30 min. The fluorescence intensity of the filtrate was subsequently measured spectrophotometrically. A concentration-to-fluorescence intensity relationship was then derived to determine the amount of unencapsulated FITC-WIP2W in the filtrate. From this, the encapsulation efficiency (EE%) of PEG-PE micelles for WIP2W can be calculated, as shown below. EE% = incorporated WIP2W/initial WIP2W added × 100%(1)

K562 cells [9] = assay: Intracellular localization by confocal laser scanning microscopy; format: cell-based, human; conditions: FITC-WIP2W 10 μM, K562, 37 °C, 3.5 h, Hoechst33342
Experimental: The precise localization of WIP2W was identified using the same microscope. K562 cells, after being exposed to FITC-WIP2W (10 μM) at 37 °C for 3.5 h, were gathered and stained with Hoechst33342. They were then moved to confocal dishes, where fluorescence data were captured.

[10] = system: WT1+ BP-CML xenograft (K562) mice; conditions: single subcutaneous injection, 30 mg/kg WIP2W (FITC-labelled), 4 h, IVIS of heart, liver, spleen, lung, kidney
Experimental: In this study, a WT1^+ BP-CML xenograft mouse model was developed. K562 cells (1 × 10^7/animal) were injected subcutaneously into the flanks of 5-week-old female BALB/c nude mice to generate primary BP-CML tumors. Once the tumors became noticeable, the mice were euthanized, and tumor cells were harvested. These cells were then reintroduced subcutaneously into a new set of hosts (1 × 10^7/animal) for further therapeutic investigations. […] Four hours post-administration, the mice were euthanized. Their tumors and primary organs were then extracted and assessed for fluorescence using IVIS (in vivo imaging system) equipment from PerkinElmer, USA.

K562 cells [11] = system: K562 cells
Experimental: as §1

Compound | Effect on cell cycle progression (myeloid leukemia) | Ki67 staining of spleen (splenic infiltration of CML cells) [1] | G2/M phase compartment of cell cycle distribution (K562 cells [2]; n = 3 (control 22.4%)) | G0/G1 phase compartment of cell cycle distribution (K562 cells [2]; n = 3 (control 24.1%)) | Binding of WIP2W to WT1 protein (pull-down) (WT1 protein [3]) | H&E staining of tumor tissues [4] | WT1 protein levels in tumor tissues relative to controls (WT1 protein [5]) | Body weight ([6]; 14 days daily treatment, compared to control and imatinib groups) | H&E staining of major organs (systemic toxicity) ([6]; after 14 days daily treatment, imatinib 50 mg/kg i.p., WIP2W 30 mg/kg s.c.) | Cytotoxicity in normal hepatic cell line L02 (L02 cells) | Cellular uptake (K562 cells [7]) | Encapsulation efficiency (EE%) ([8]; molar ratio PEG-PE:WIP2W 3:1, FITC-WIP2W 10 μM in PBS, ultrafiltration MWCO 100,000, fluorescence) | Encapsulation efficiency (EE%) ([8]; molar ratio PEG-PE:WIP2W surpassed 10, FITC-WIP2W 10 μM in PBS, ultrafiltration, fluorescence) | Intracellular localization (K562 cells [9]) | Distribution in major organs [10] | Cell viability (K562 cells [11]; K562, 20 μM, 24 h, CCK-8, PBS control = 100%) | IC50 (K562 cells [11]; read-out: IC50 (concentration that inhibited 50% K562 cell proliferation), K562, 24 h, CCK-8, n = 6)
COc1cc(/C=C/C(=O)CC(=O)/C=C/c2ccc(O)c(OC)c2)ccc1O [curcumin] | induce cell death and G2/M phase arrest | – | – | – | – | – | – | – | – | – | – | – | – | – | – | – | –
Cc1ccc(NC(=O)c2ccc(CN3CCN(C)CC3)cc2)cc1Nc1nccc(-c2cccnc2)n1 [imatinib, reference compound] | – | pronounced fluorescence in the spleen | – | – | – | – | – | – | – | – | – | – | – | – | – | – | –
WWGGDQRRSWGRRRPDRRYGRKKRRQRRR [WIP2W] | – | negligible signs of metastatic CML cells in the spleen | 14.1% | 32.4% | specifically bind to the WT1 protein in both the nucleus and cytoplasm | pronounced cell death | significantly diminished | no significant weight loss | minimal systemic toxicity | no apparent cytotoxicity | concentration dependency | approximately 72% | exceeded 95% | majority of the green fluorescence was pinpointed in K562 cells’ nuclei | predominantly distributed in the liver and kidneys | < 10% | 9.7 µM
